Test results reported in patent EP0629405A1, “Agent for inhibiting a decrease in bone mass in renal osteodystrophy” (KUREHA CHEMICAL INDUSTRY CO., LTD., priority 1993, dated 1994).
Like-named read-outs stand apart in the source and are kept apart here.

Experiments:
[1] = system: male SD rats with 7/8 of their kidney arteries ligated; experiment: renal osteodystrophy model: rats with 7/8 of kidney arteries ligated, oral administration for 4 months; femur mineral content by single photon absorptiometry and bone histology; type: in vivo; conditions: sham-operated control 0.284± 0.023, ligation-operated control 0.259± 0.017
Text: In view of these circumstances, the present inventors have made extensive investigations to develop novel rat models wherein renal insufficiency induces abnormal bone quality and low bone mass similar to clinical renal osteodystrophy. As a result, the present inventors have succeeded in obtaining an animal model with such diseases. Thus, after 7/8 of kidney arteries were ligated, animals endurable even for a long breeding term with a mild renal insufficiency were selected and carefully bred for 6 months to establish an animal model with renal osteodystrophy with accompanying abnormal bone quality and low bone mass.
After male SD rats with 7/8 of their kidney arteries ligated at 11 weeks old are bred for 8 weeks, 24R, 25-(OH)₂-D₃ and 24, 25-(OH)₂-D₃ (a racemate of 24R and 24S isomers) are administered orally to the rat for 4 months, respectively.
A solution of sesame oil (the Pharmacopoeia of Japan) containing 0.5 % ethanol is utilized as the solvent. The test is conducted by using 5 groups each of which consists of 6 to 10 rats as follows: • I. sham-operated control group (normal control group, solvent administration) n=8 • II. solvent administration control group n=6 • III. 24R, 25-(OH)₂-D₃ 0.1 µg/kg n=6 • IV. 24R, 25-(OH)₂-D₃ 5.0 µg/kg n=10 • V. 24, 25-(OH)₂-D₃ 5.0 µg/kg n=10
After administration, blood is anesthetically collected and applied to a biochemical serum analysis. After femur is resected, mineral content of femur is measured by means with equipment capable of measuring bone mass (single photon absorptiometry; SPA). Further, the bone tissue sample is stained by Villaneuva's bone staining after slicing, followed by observation under a microscope.

[2] = acute toxicity, oral administration in sesame oil, death rates for 2 weeks; conditions: mouse, in vivo, sesame oil containing 0.5 % ethanol, read-out: LD₅₀ (lethal dose, 50% mortality)
Method: The active compound of the present invention is tested for acute toxicity and the resultant data is shown as follows:
The active compound of the present invention, 24R, 25-(OH)₂-D₃ is admixed with a sesame oil (containing 0.5 % ethanol) and the mixture is orally administered to 4 groups of female and male ICR mice (each group has 5 mice) (body weight: male 29 to 33 g, female 22 to 29 g). Two weeks later, toxic symptom is observed.

| SMILES | bone mass (mineral content of femur, SPA) ([1]; 5.0 µg/kg orally for 4 months) | LD50 at 336 h ([2]; female ICR mice) | LD50 at 336 h ([2]; male ICR mice) | bone mass (mineral content of femur, SPA) ([1]; 0.1 µg/kg orally for 4 months) |
| --- | --- | --- | --- | --- |
| C=C1CC[C@H](O)C/C1=C/C=C1\CCC[C@]2(C)[C@@H]([C@H](C)CCC(O)C(C)(C)O)CC[C@@H]12 (some centres unmarked) [24, 25-(OH)₂-D₃, 24, 25-dihydroxycholecalciferol] | 0.282± 0.025 g/cm² |  |  |  |
| C=C1CC[C@H](O)C/C1=C/C=C1\CCC[C@]2(C)[C@@H]([C@H](C)CC[C@@H](O)C(C)(C)O)CC[C@@H]12 [24R, 25-(OH)₂-D₃, 24R, 25-dihydroxycholecalciferol] | 0.292 ± 0.019 g/cm² | 253 mg/kg | 215 mg/kg | 0.291± 0.032 g/cm² |
